Test results from patent publication US3974135A, “Synthetic decapeptide having the activity of the luteinizing hormone releasing hormone and method for producing the same” (priority 1972, dated 1976).
Several values for one entry are separate records, joined by “and”; a condition that tells them apart may be missing. Identical values can stand only once.

System: LH
Assay: LRH assay in vivo in rats: serum LH by radioimmunoassay before and after injection of the peptide
Details: for increase of the LH level: in vivo assay in rats; for mμg LH/ml serum before: before injection
Experimental: The LRH assay was performed by the procedure of Ramirez and McCann (Endocrinology 73, 193 (1963) ). Serum assays for LH were performed in duplicate by the double antibody radioimmuno assay of Niswender et al. (Proc. Soc. Exp. Biol. Med. 128, 807 (1968)) using antiovine LH serum and ovine LH-^131 I. The activity was determined by comparison of LH levels before and after injection of the peptide.

| Compound | doses at which it releases LRH (active dose) [ng] | increase of the LH level (dose of 25 ng) [times] | increase of the LH level (dose of 50 ng) | potency compared among the three decapeptides I, II, III (rat, in vivo) | mμg LH/ml serum before (dose level 25 μg) | mμg LH/ml serum after (dose level 200 μg, after injection) [mμg LH/ml serum] | mμg LH/ml serum before (dose level 200 μg) |
| --- | --- | --- | --- | --- | --- | --- | --- |
| CC(C)C[C@H](NC(=O)CNC(=O)[C@H](Cc1ccc(O)cc1)NC(=O)[C@H](CO)NC(=O)[C@H](Cc1c[nH]c2ccccc12)NC(=O)[C@H](Cc1c[nH]cn1)NC(=O)[C@@H]1CCC(=O)N1)C(=O)N[C@@H](CCCNC(=N)N)C(=O)N1CCC[C@H]1C(=O)NCC(N)=O [I, pGlu-His-Trp-Ser-Tyr-Gly-Leu-Arg-Pro-Gly-NH2] | 1 to 25 | 30 | maximum increase | most potent | – | – | – |
| CC(C)C[C@H](NC(=O)CNC(=O)[C@H](Cc1ccc(O)cc1)NC(=O)[C@H](CO)NC(=O)[C@H](Cc1c[nH]c2ccccc12)NC(=O)[C@H](Cc1c[nH]cn1)NC(=O)[C@@H]1CCC(=O)N1)C(=O)N[C@@H](CCCNC(=N)N)C(=O)N1CCC[C@H]1C(=O)NCC(=O)O [II, pGlu-His-Trp-Ser-Tyr-Gly-Leu-Arg-Pro-Gly-OH] | – | – | – | – | 4.4 mμg LH/ml serum and 5.8 mμg LH/ml serum | > 285.0 | < 4.0 mμg LH/ml serum and 4.0 mμg LH/ml serum |
